Measured values as given in paper PMC11413854, “Reversible Control of Native GluN2B-Containing NMDA Receptors with Visible Light” (ACS Chemical Neuroscience, 2024).
“And” between values parts separate entries of the source, which are not always exact repeats. Equal values may be shown once. Read-outs that look alike come from different tables or passages of the source.

Target: T1, GluN1/GluN2B NMDA receptors (UniProt P35439+Q01097)
T1 construct: expressed in transfected cells; host or cells: Xenopus laevis oocytes (nuclear cDNA injection)
Experiment: TEVC electrophysiology on Xenopus oocytes expressing wt GluN1/GluN2B NMDARs
Type: cell-based, rat GluN1, mouse GluN2B
Settings: for inhibition of GluN1/GluN2B wt: 1 µM trans-OptoNAM-3 (dark); for IC50: 100 µM glutamate + glycine, Xenopus oocytes; for remaining activity at 1 µM: [OptoNAM-3] 1 µM; for remaining activity at 3 µM: [OptoNAM-3] 3 µM; for remaining activity at 5 µM: [OptoNAM-3] 5 µM; for remaining activity at 0.025 µM: [OptoNAM-3] 0.025 µM; for remaining activity at 0.05 µM: [OptoNAM-3] 0.05 µM; for remaining activity at 0.22 µM: [OptoNAM-3] 0.22 µM; for remaining activity at 30 µM: [OptoNAM-3] 30 µM; for Relative current for theoretical DRC 9% trans: theoretical for 350 nm PSS
From the text: The activity of OptoNAM-3 was functionally monitored by electrophysiology on Xenopus oocytes (see Methods). To assess the light-dependent effect, we tested the activities of the dark PSS (mostly trans) and the UV PSS (mostly cis, see above) separately. For each concentration, we prepared a solution divided into two samples: one in which the compound was kept in the dark for the duration of the experiment (dark PSS state); and the other that was preilluminated with either 350 or 365 nm light (350 or 365 nm PSS) and then kept away from the light for the duration of the experiment in order to avoid photoisomerization of the compounds by ambient light (see Methods). […] We generated dose–response curves of OptoNAM-3 dark and UV PSS on wild-type (wt) GluN1/GluN2B NMDA receptors (Figure 3A) in the presence of saturating concentrations of agonists (100 μM glutamate and glycine).
We used cDNA coding for rat GluN1–1a (named GluN1 herein) (GenBank: U08261.1), rat GluN2A (GenBank: D13211.1), mouse GluN2B (GenBank: D10651.2), rat GluA1 flop (GenBank: M36418.2), and rat Myc-GluA2(Q)-flip (GenBank: AF164344.1) cloned into pcDNA3-based expression plasmids. GluK2 (GenBank: Z11548.1) corresponds to the fully RNA-edited version.[80] The GluN2B-ΔNTD construct is from ref[45] and GluN2B–N615K is from ref[81]. Single mutants GluN2B-Q110G and GluN1-L135H were from ref[19]. The GluA2 cDNA contains a Myc tag ([…]) fused between the signal peptide and the N-terminus sequences, and the GluA2 subunit is […] for its Q/R/N site (GluA2(Q)) to allow permeation of homomeric GluA2 receptors.[2] cDNAs coding for rat GluN2C (GenBank: M91563.1) and GluN2D subunits (GenBank: L31611.1) were in prK5 plasmids.
Oocytes from Xenopus laevis were used for heterologous expression of recombinant NMDA receptors studied using a two-electrode voltage clamp (TEVC). Female Xenopus laevis were housed and ovary bags harvested according to the European Union guidelines (husbandry authorizations #C75–05–31 and #D75–05–31; project authorizations #05137.02; and Apafis #28867–2020121814485893). Fragments of ovary bags were also purchased from the “Centre de Ressources Biologiques Xenopes” (now TEFOR, Paris Saclay, France) and from the European Xenopus Resource Center (EXRC, Portsmouth, UK). Xenopus laevis oocytes were harvested and prepared as previously described in ref[82].
Expression of recombinant NMDA receptors was obtained by oocyte nuclear coinjection of 37 nL of a mixture of cDNAs (at 30 ng/μL) coding for GluN1–1a and various GluN2 subunits (ratio 1:1). The protocol in ref[43] was followed for the expression of GluN1/GluN2A/GluN2B triheteromers. The oocytes were transferred in 96-well plates filled with Barth solution (in mM: 88 NaCl, 1 KCl, 0.33 Ca(NO3)2, 0.41 CaCl2, 0.82 MgSO4, 2.4 NaHCO3, and 7.5 HEPES, pH adjusted to 7.3 with NaOH), supplemented with gentamicin ([…]) and 50 μM APV, a selective NMDA receptor antagonist. Plates were then stored at 18 °C for 24 h for GluN1/GluN2A expression and for 48––72 h for the expression of GluN1/Glu2B, GluN1/GluN2A/GluN2B, and mutants.
TEVC recordings were performed 1–3 days following injection. TEVC recordings were performed using an Oocyte Clamp amplifier OC-725 (Warner Instruments) and computer-controlled via a 1440A Digidata (Molecular Devices). Currents were sampled at 100 Hz and low-pass-filtered at 20 Hz using an 8-pole Bessel filter (900 Series, Frequency Devices Inc.).

[1] = GluN1/GluN2B wt, OptoNAM-3 350 nm PSS, read-out: Relative current (IOpto/I0)
[2] = GluN1/GluN2B wt, OptoNAM-3 365 nm PSS, read-out: Relative current (IOpto/I0)
[3] = GluN1/GluN2B wt, OptoNAM-3 dark PSS (trans), read-out: Relative current (IOpto/I0)

T1 sequence (Q01097 27-1482, other chains not shown): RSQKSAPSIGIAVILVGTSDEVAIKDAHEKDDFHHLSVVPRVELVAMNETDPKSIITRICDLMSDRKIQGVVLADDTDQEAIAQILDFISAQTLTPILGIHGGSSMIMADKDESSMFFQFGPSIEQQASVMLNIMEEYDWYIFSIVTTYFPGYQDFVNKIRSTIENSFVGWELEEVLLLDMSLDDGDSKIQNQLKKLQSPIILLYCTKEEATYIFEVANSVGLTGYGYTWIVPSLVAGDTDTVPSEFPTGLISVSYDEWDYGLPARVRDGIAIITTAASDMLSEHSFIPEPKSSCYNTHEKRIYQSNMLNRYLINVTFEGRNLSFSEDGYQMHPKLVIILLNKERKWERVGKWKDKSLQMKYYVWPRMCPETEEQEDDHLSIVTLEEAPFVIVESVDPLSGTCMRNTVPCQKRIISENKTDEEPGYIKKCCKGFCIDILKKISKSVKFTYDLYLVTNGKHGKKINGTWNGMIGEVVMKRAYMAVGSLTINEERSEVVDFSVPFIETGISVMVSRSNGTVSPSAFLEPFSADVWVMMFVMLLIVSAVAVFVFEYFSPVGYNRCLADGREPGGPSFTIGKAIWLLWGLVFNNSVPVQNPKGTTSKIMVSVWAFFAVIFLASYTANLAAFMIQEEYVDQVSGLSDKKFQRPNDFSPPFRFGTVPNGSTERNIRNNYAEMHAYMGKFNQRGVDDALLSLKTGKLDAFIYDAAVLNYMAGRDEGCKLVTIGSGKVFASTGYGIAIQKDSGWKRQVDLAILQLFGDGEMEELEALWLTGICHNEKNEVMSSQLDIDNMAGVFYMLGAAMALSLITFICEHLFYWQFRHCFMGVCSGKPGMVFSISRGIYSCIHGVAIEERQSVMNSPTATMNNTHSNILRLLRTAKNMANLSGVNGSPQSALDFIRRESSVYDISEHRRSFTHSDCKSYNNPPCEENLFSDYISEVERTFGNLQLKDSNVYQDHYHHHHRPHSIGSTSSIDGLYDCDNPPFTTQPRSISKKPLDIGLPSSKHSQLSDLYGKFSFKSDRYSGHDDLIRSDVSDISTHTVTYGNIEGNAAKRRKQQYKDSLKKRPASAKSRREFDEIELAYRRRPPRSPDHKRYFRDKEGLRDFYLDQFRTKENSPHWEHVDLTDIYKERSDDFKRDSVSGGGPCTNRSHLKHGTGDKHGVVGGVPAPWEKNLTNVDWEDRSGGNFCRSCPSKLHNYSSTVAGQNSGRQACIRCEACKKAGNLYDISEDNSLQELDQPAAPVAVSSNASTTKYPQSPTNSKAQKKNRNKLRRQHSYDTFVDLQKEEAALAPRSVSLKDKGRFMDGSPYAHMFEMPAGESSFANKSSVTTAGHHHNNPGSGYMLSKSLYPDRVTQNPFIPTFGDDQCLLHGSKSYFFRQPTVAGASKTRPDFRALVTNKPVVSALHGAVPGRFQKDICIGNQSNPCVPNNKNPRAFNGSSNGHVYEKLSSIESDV

## c1ccc(/N=N/c2ccc(CCNc3ccncc3)cc2)cc1 [OptoNAM-3, (E)-N-(4-(Phenyldiazenyl)phenethyl)pyridin-4-amine]
0.025 µM, calculated from the 365 nm PSS curve
  Relative current for theoretical 100% cis: 0.953
0.050 µM, calculated from the 365 nm PSS curve
  Relative current for theoretical 100% cis: 0.945
0.125 µM, calculated from the 350 nm PSS curve
  Relative current for theoretical 100% cis: 0.949
0.125 µM, calculated from the 365 nm PSS curve
  Relative current for theoretical 100% cis: 0.988
0.220 µM, calculated from the 365 nm PSS curve
  Relative current for theoretical 100% cis: 1.000
0.300 µM, calculated from the 350 nm PSS curve
  Relative current for theoretical 100% cis: 1.005
0.300 µM, calculated from the 365 nm PSS curve
  Relative current for theoretical 100% cis: 0.993
0.470 µM, calculated from the 350 nm PSS curve
  Relative current for theoretical 100% cis: 1.025
0.500 µM, calculated from the 365 nm PSS curve
  Relative current for theoretical 100% cis: 0.891
  inhibition of GluN1/GluN2B wt: 69.305%
Listed as trans-OptoNAM-3
  inhibition of GluN1/GluN2B wt: 69% ± 2%
1.000 µM, calculated from the 350 nm PSS curve
  Relative current for theoretical 100% cis: 1.085
1.000 µM, calculated from the 365 nm PSS curve
  Relative current for theoretical 100% cis: 0.988
2.000 µM, calculated from the 350 nm PSS curve
  Relative current for theoretical 100% cis: 1.000
2.000 µM, calculated from the 365 nm PSS curve
  Relative current for theoretical 100% cis: 0.933
3.000 µM, calculated from the 350 nm PSS curve
  Relative current for theoretical 100% cis: 1.043
3.000 µM, calculated from the 365 nm PSS curve
  Relative current for theoretical 100% cis: 0.959
5.000 µM, calculated from the 350 nm PSS curve
  Relative current for theoretical 100% cis: 0.994
5.000 µM, calculated from the 365 nm PSS curve
  Relative current for theoretical 100% cis: 0.960
10 µM OptoNAM-3 365 nm PSS, construct GluN1/GluN2B, read-out: Inhibition (%)
  inhibition at 10 µM: 68%
10 µM OptoNAM-3 dark PSS (trans) as headed, GluN1/GluN2B, single cells, second block
  Inhibition, individual values: 0.6438 and 0.6778 and 0.6833 and 0.7763
10 µM OptoNAM-3 dark PSS (trans) as headed, GluN1/GluN2B, single cells, second block, read-out: Inhibition, individual values
  inhibition at 10 µM: 63.8%
10 µM OptoNAM-3 dark PSS (trans), GluN1/GluN2B, single cells, first block
  Inhibition, individual values: 0.9137 and 0.9546 and 0.9747
10 µM OptoNAM-3 dark PSS (trans), GluN1/GluN2B, single cells, first block, read-out: Inhibition, individual values
  inhibition at 10 µM: 92.7%
10 µM OptoNAM-3 dark PSS (trans), construct GluN1/GluN2B, read-out: Inhibition (%)
  inhibition at 10 µM: 94%
30.000 µM, calculated from the 365 nm PSS curve
  Relative current for theoretical 100% cis: 0.961
350 nm PSS, read-out: IC50 on GluN1/GluN2B receptors, preilluminated with 350 nm
  IC50: 4.4 µM and 4.38 µM
365 nm PSS, read-out: IC50 on GluN1/GluN2B receptors, preilluminated with 365 nm
  IC50: 1.7 µM
GluN1/GluN2B wt, OptoNAM-3 350 nm PSS, [OptoNAM-3] 0.125 µM, read-out: Relative current (IOpto/I0)
  remaining activity at 0.125 µM: 90.7%
GluN1/GluN2B wt, OptoNAM-3 350 nm PSS, [OptoNAM-3] 0.3 µM, read-out: Relative current (IOpto/I0)
  remaining activity at 0.3 µM: 91.8%
GluN1/GluN2B wt, OptoNAM-3 350 nm PSS, [OptoNAM-3] 0.47 µM, read-out: Relative current (IOpto/I0)
  remaining activity at 0.47 µM: 90%
[1]
  remaining activity at 1 µM: 86%
  remaining activity at 3 µM: 61.3%
  remaining activity at 5 µM: 44.6%
GluN1/GluN2B wt, OptoNAM-3 350 nm PSS, [OptoNAM-3] 2 µM, read-out: Relative current (IOpto/I0)
  remaining activity at 2 µM: 65.6%
[2]
  remaining activity at 0.025 µM: 93.3%
  remaining activity at 0.05 µM: 91%
  remaining activity at 0.22 µM: 88%
  remaining activity at 1 µM: 64.4%
  remaining activity at 3 µM: 37.5%
  remaining activity at 5 µM: 26.7%
  remaining activity at 30 µM: 3.4%
GluN1/GluN2B wt, OptoNAM-3 365 nm PSS, [OptoNAM-3] 0.125 µM, read-out: Relative current (IOpto/I0)
  remaining activity at 0.125 µM: 91.2%
GluN1/GluN2B wt, OptoNAM-3 365 nm PSS, [OptoNAM-3] 0.3 µM, read-out: Relative current (IOpto/I0)
  remaining activity at 0.3 µM: 84.1%
GluN1/GluN2B wt, OptoNAM-3 365 nm PSS, [OptoNAM-3] 0.5 µM, read-out: Relative current (IOpto/I0)
  remaining activity at 0.5 µM: 66.6%
GluN1/GluN2B wt, OptoNAM-3 365 nm PSS, [OptoNAM-3] 2 µM, read-out: Relative current (IOpto/I0)
  remaining activity at 2 µM: 43.3%
[3]
  remaining activity at 0.025 µM: 88.7%
  remaining activity at 0.05 µM: 82.7%
  remaining activity at 0.22 µM: 59.2%
  remaining activity at 1 µM: 30.7%
  remaining activity at 3 µM: 9.8%
  remaining activity at 5 µM: 9.2%
  remaining activity at 30 µM: 0.423%
GluN1/GluN2B wt, OptoNAM-3 dark PSS (trans), [OptoNAM-3] 0.125 µM, read-out: Relative current (IOpto/I0)
  remaining activity at 0.125 µM: 75.8%
GluN1/GluN2B wt, OptoNAM-3 dark PSS (trans), [OptoNAM-3] 0.3 µM (Sup. Fig. 3A/B/E), read-out: Relative current (IOpto/I0)
  remaining activity at 0.3 µM: 58.1%
GluN1/GluN2B wt, OptoNAM-3 dark PSS (trans), [OptoNAM-3] 2 µM (Sup. Fig. 3A/B/E), read-out: Relative current (IOpto/I0)
  remaining activity at 2 µM: 14.1%
GluN1/GluN2B wt, [OptoNAM-3] 0.125 µM
  Relative current for theoretical DRC 9% trans: 0.958
GluN1/GluN2B wt, [OptoNAM-3] 0.3 µM
  Relative current for theoretical DRC 9% trans: 0.913
GluN1/GluN2B wt, [OptoNAM-3] 0.47 µM
  Relative current for theoretical DRC 9% trans: 0.875
